Reference: patent US20070183976A1, “Composition for ultrasound therapy and pharmaceutical liquid composition containing the same” (IMARX THERAPEUTICS, INC., priority 2006, published 2007)

Test system: artificial thrombosis
Experiment: Fibrinolysis of artificial thrombosis (Chandler's method) with ultrasonic catheter
Format: biochemical, human
Settings: average of two tests; for time for achieving 20% fibrinolysis: FIG. 4, blood from one person
Protocol: An artificial thrombosis was formed by Chandler's method. A sample of blood (1 ml) collected from a healthy person was entered into a flexible tube (inside diameter 3 mm, length 265 mm) and calcium chloride was added. The tube was shaped like a loop and was rotated at 12 r.p.m. for 20 minutes to give an artificial thrombosis model.
A ceramic ultrasonic element (width 2 mm, length 5 mm, thickness 1 mm) was inserted into the tip of a catheter (diameter 2 mm), and an oscillating element was connected to an oscillator provided outside with a fine connector passed through the catheter. A fine tube for pouring a test solution was provided at an opening opposite to the opening of the catheter end.
The artificial thrombosis prepared as described above was added to a test tube together with blood, and the ultrasonic catheter was inserted into the test tube so that the end of the catheter was set close to the portion of the artificial thrombosis (at a distance of about 5 mm). To the test tube was added a mixture of urokinase and a booster prepared as in Example 1 at a rate of 1 ml per minute, wherein urokinase (concentration 1200 Ill/ml) and the booster were mixed immediately before pouring at a mixing ratio of 1:1 by mass. The mixture was refluxed while keeping the volume of the test solution at a constant level by removing excess volume of the solution by suction.
The mixture was exposed to the ultrasound at a frequency of 170 KHz to by a pulse method (exposure for 2 seconds followed by termination of exposure for 4 seconds) for 2 minutes. Total exposure time was 40 seconds). After the exposure, the ultrasonic catheter was removed from the test tube, and the mixture was incubated at 37° C. for between 5 and 120 minutes, washed with a physiological saline solution several times and dried overnight. Thereafter, the dried mixture was weighed. […]
The rate of fibrinolysis was calculated by the following equation: Fibrinolysis rate (%)=(A−B)/A×100, wherein • A is the weight of thrombosis in control; and • B is the weight of thrombosis treated. […]

Substance: urokinase
- time for achieving 20% fibrinolysis (with exposure of ultrasound 170 KHz pulsed, 40 s total): 30 min
- time for achieving 20% fibrinolysis (without exposure of ultrasound, urokinase 1200 IU/ml): about 45 minutes
- treatment time at which 50% fibrinolysis was achieved (FIG. 5, with exposure of ultrasound, energy reduced by 15%, blood from another person): 60 min
